Assay results reported in patent US5646131A, “Method for solubilizing drugs using cyclodextrins and carboxylic acids” (The Arab Company For Drug Industries And Medical …, priority 1995, dated 1997).
Values after ≈ are worked out from the molar mass of the structure shown. Where two headings read alike, the source gives them in different places.

Legend:
[1] = 30° C.; for Solubility in 2% aq. beta CD soln.: water containing 2% β-cyclodextrin; for Solubility, beta-cyclodextrin + citric acid / Solubility, beta-cyclodextrin + glutaric acid / Solubility, beta-cyclodextrin + lactic acid / Solubility, beta-cyclodextrin + tartaric acid: 2% β-cyclodextrin; for Solubility, beta-cyclodextrin + lactic acid: 1% lactic acid
physchem = conditions: water
[2] = with β-cyclodextrin; Menard et al 1990; cited from earlier work

Row | Solubility, beta-cyclodextrin + glutaric acid (*trisodium salt) (2% beta-cd, 1% glutarate salt) [µg/mL] | Solubility, beta-cyclodextrin + tartaric acid (*trisodium salt) (2% beta-cd, 1% tartrate salt) [µg/mL] | Solubility in 2% aq. beta CD soln. (water, 2% beta-cyclodextrin) [µg/mL] | solubility (physchem) [µg/mL] | Solubility, alpha-cyclodextrin + citric acid ([1]; 2% α-cyclodextrin, 1% citric acid, aqueous) [µg/mL] | Solubility, alpha-cyclodextrin + glutaric acid ([1]; 2% α-cyclodextrin, 1% glutaric acid, aqueous) [µg/mL] | Solubility, alpha-cyclodextrin + tartaric acid ([1]; 2% α-cyclodextrin, 1% tartaric acid, aqueous) [µg/mL] | Solubility, gamma-cyclodextrin + citric acid ([1]; 2% γ-cyclodextrin, 1% citric acid, aqueous) [µg/mL] | Solubility, gamma-cyclodextrin + glutaric acid ([1]; 2% γ-cyclodextrin, 1% glutaric acid, aqueous) [µg/mL] | Solubility, gamma-cyclodextrin + tartaric acid ([1]; 2% γ-cyclodextrin, 1% tartaric acid, aqueous) [µg/mL] | SMILES | Solubility in 2% aq. beta CD soln. [1] [µg/mL] | Solubility in water ([1]; water) | Relationship between solubility and concentration at different pH [2] | Solubility, beta-cyclodextrin + citric acid ([1]; 1% citric acid, aqueous) [µg/mL] | Solubility, beta-cyclodextrin + glutaric acid ([1]; 1% glutaric acid, aqueous) [µg/mL] | Solubility, beta-cyclodextrin + lactic acid ([1]; aqueous) [µg/mL] | Solubility, beta-cyclodextrin + tartaric acid ([1]; 1% tartaric acid, aqueous) [µg/mL]
1 | – | – | – | – | – | – | – | – | – | – | CN1C(C(=O)Nc2ccccn2)=C(O)c2ccccc2S1(=O)=O [Piroxicam] | 72 (≈ 217 µM) | insoluble | – | – | – | – | –
2 | 3000 | 1360 | 690 (≈ 3340 µM) | < 10 | – | – | – | – | – | – | CC(C)Cc1ccc(C(C)C(=O)O)cc1 (stereo not shown) [Ibuprofen] | – | – | the relationship between solubility and concentration is the same at different pH levels | – | – | – | –
3 | – | – | – | < 10 | 2150 | 7170 | 1310 | 2200 | 6080 | 1220 | CC(C)(C)c1ccc(C(O)CCCN2CCC(C(O)(c3ccccc3)c3ccccc3)CC2)cc1 (stereo not shown) [Terfenadine] | 10 (≈ 21.2 µM) | – | – | 5680 | 5490 | 8870 | 5210

Row | SMILES | Solubility, beta-cyclodextrin + glutaric acid (*trisodium salt) (2% beta-cd, 1% glutarate salt) [µg/mL] | Solubility, beta-cyclodextrin + tartaric acid (*trisodium salt) (2% beta-cd, 1% tartrate salt) [µg/mL] | Solubility in 2% aq. beta CD soln. (water, 2% beta-cyclodextrin) [µg/mL] | solubility (physchem) [µg/mL] | Solubility, alpha-cyclodextrin + citric acid ([1]; 2% α-cyclodextrin, 1% citric acid, aqueous) [µg/mL] | Solubility, alpha-cyclodextrin + glutaric acid ([1]; 2% α-cyclodextrin, 1% glutaric acid, aqueous) [µg/mL] | Solubility, alpha-cyclodextrin + tartaric acid ([1]; 2% α-cyclodextrin, 1% tartaric acid, aqueous) [µg/mL] | Solubility, gamma-cyclodextrin + citric acid ([1]; 2% γ-cyclodextrin, 1% citric acid, aqueous) [µg/mL] | Solubility, gamma-cyclodextrin + glutaric acid ([1]; 2% γ-cyclodextrin, 1% glutaric acid, aqueous) [µg/mL] | Solubility, gamma-cyclodextrin + tartaric acid ([1]; 2% γ-cyclodextrin, 1% tartaric acid, aqueous) [µg/mL] | Solubility in 2% aq. beta CD soln. [1] [µg/mL] | Solubility in water ([1]; water) | Relationship between solubility and concentration at different pH [2] | Solubility, beta-cyclodextrin + citric acid ([1]; 1% citric acid, aqueous) [µg/mL] | Solubility, beta-cyclodextrin + glutaric acid ([1]; 1% glutaric acid, aqueous) [µg/mL] | Solubility, beta-cyclodextrin + lactic acid ([1]; aqueous) [µg/mL] | Solubility, beta-cyclodextrin + tartaric acid ([1]; 1% tartaric acid, aqueous) [µg/mL]
4 | COc1cc(N)c(Cl)cc1C(=O)NC1CCN(CCCOc2ccc(F)cc2)CC1OC (stereo not shown) [Cisapride] | – | – | – | 3 (≈ 6.44 µM) | – | – | – | – | – | – | 15 (≈ 32.2 µM) | – | – | 550 | 2070 | 11400 | 4380
